Reference: paper PMC11882969 (Nature Communications, 2025)
“And” between values parts separate entries of the source, which are not always exact repeats. Equal values may be shown once.

How the values were obtained:
CB1 (rCB1) = CB1 (rCB1) (Rattus norvegicus, UniProt P20272); test: Radioligand competition binding, [3H]-CP-55,940, rat brain membranes
hCB1 = hCB1 (Homo sapiens, UniProt P21554); test: bioSensAll ebBRET signaling profiling, hCB1; format: cell-based; set-up: host or cells: HEK293SL cells, transient PEI transfection; conditions: for Gi1 hCB1 response: Gi1 biosensor; for Gi1 hCB1 / GoB hCB1: single replicate values, FigS6a
Sequence of hCB1 (P21554 whole entry): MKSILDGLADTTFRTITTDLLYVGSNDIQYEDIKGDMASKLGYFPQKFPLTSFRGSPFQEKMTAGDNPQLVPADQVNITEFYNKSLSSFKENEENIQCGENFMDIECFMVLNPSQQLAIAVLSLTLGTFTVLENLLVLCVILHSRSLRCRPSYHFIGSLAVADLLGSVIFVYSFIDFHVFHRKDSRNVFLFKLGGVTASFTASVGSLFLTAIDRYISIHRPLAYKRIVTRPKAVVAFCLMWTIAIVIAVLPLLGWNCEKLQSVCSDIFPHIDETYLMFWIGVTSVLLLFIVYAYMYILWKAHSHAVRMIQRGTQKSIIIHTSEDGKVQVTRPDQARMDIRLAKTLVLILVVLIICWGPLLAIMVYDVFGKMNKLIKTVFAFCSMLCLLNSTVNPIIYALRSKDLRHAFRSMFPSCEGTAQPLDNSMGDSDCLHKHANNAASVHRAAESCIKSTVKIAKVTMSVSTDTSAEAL

Sequence of CB1 (rCB1) (P20272 whole entry): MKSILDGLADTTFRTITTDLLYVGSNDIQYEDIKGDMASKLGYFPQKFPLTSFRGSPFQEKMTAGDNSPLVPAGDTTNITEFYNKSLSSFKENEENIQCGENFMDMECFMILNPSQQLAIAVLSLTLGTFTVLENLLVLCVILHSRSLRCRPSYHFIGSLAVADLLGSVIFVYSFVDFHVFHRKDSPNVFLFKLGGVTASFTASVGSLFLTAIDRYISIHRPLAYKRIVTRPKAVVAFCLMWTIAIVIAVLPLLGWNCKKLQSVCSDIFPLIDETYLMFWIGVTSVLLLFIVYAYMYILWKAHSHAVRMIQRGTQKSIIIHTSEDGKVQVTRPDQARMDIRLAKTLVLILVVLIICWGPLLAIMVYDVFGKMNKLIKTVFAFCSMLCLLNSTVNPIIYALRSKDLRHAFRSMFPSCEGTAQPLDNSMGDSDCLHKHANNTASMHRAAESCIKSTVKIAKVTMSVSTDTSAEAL

## Cc1cc(C(=O)N(C)C(c2ccccc2)c2ccco2)nn1-c1cccc(C(F)(F)F)c1 (centres unmarked) [‘1082]
CB1 (rCB1); rCB1
  pKi [95% CI]: 6.1 [5.8 – 6.3]
CB1 (rCB1); read-out: Ki [95% CI], rCB1, [3H]-CP-55,940
  Ki: 850 nM
hCB1; Log [Compound] (M) -4.22186
  Gi1 hCB1 response: -35.0608
  Gi1 hCB1: -9.361
  GoB hCB1: -31.4993
hCB1; Log [Compound] (M) -4.63927
  Gi1 hCB1 response: -33.606
  Gi1 hCB1: -10.6872
  GoB hCB1: -34.2867
hCB1; Log [Compound] (M) -5.05788
  Gi1 hCB1 response: 18.2518
  Gi1 hCB1: -11.9051
  GoB hCB1: -28.1184
hCB1; Log [Compound] (M) -5.47381
  Gi1 hCB1 response: -3.66
  Gi1 hCB1: -11.4426
  GoB hCB1: -23.1191
hCB1; Log [Compound] (M) -5.89285
  Gi1 hCB1 response: 5.159
  Gi1 hCB1: -8.945
  GoB hCB1: -20.2417
hCB1; Log [Compound] (M) -6.31878
  Gi1 hCB1 response: -15.9695
  Gi1 hCB1: -6.247
  GoB hCB1: -13.1203
hCB1; Log [Compound] (M) -6.72585
  Gi1 hCB1 response: 12.7459
  Gi1 hCB1: -1.113
  GoB hCB1: -7.186
hCB1; Log [Compound] (M) -7.14267
  Gi1 hCB1 response: 12.0521
  Gi1 hCB1: -0.5276
  GoB hCB1: -1.323
hCB1; Log [Compound] (M) -7.55284
  Gi1 hCB1 response: 14.8945
  Gi1 hCB1: 1.23
  GoB hCB1: 0.2953
hCB1; Log [Compound] (M) -8
  Gi1 hCB1 response: -25.6382
  Gi1 hCB1: 1.677
  GoB hCB1: -4.362
hCB1; Log [Compound] (M) -8.22186
  Gi1 hCB1 response: 0.1228
  Gi1 hCB1: 1.6461
  GoB hCB1: -2.654
hCB1; Log [Compound] (M) -8.39794
  Gi1 hCB1 response: -3.727
  Gi1 hCB1: 0.5515
  GoB hCB1: -2.906
hCB1; Log [Compound] (M) -8.68787
  Gi1 hCB1 response: -1.824
  Gi1 hCB1: 1.245
  GoB hCB1: -4.668
hCB1; Log [Compound] (M) -9.15521
  Gi1 hCB1 response: 3.279
  Gi1 hCB1: 1.045
  GoB hCB1: -5.747
hCB1; Log [Compound] (M) -9.61989
  Gi1 hCB1 response: -3.167
  Gi1 hCB1: -0.04972
  GoB hCB1: -2.816
hCB1; Log [Compound] (M) -10.0969
  Gi1 hCB1 response: -2.16
  Gi1 hCB1: 2.864
  GoB hCB1: -1.485
hCB1; Log [Compound] (M) -10.5529
  Gi1 hCB1 response: 5.92
  Gi1 hCB1: 1.384
  GoB hCB1: -2.978
hCB1; Log [Compound] (M) -11.0177
  Gi1 hCB1 response: -6.256
  Gi1 hCB1: -0.3581
  GoB hCB1: 1.41
hCB1; Log [Compound] (M) -11.4949
  Gi1 hCB1 response: -0.9291
  Gi1 hCB1: 1.415
  GoB hCB1: -0.7478
hCB1; Log [Compound] (M) -11.9208
  Gi1 hCB1 response: -13.4627
  Gi1 hCB1: 2.802
  GoB hCB1: 0.3312
hCB1; Log [Compound] (M) -12.3979
  Gi1 hCB1 response: -16.5961
  Gi1 hCB1: 0.1044
  GoB hCB1: -0.9456
hCB1; Log [Compound] (M) -12.8861
  Gi1 hCB1 response: 7.553
  Gi1 hCB1: -0.6818
  GoB hCB1: 1.626
hCB1; Log [Compound] (M) -13, individual replicate values
  Gi1 hCB1 response: -19.5729 and -62.4781
hCB1; Log [Compound] (M) -13
  Gi1 hCB1: 2.001 and 0.07361
  GoB hCB1: 1.176 and -0.1363
